The compounds below were run against T1, HGFR (Homo sapiens, UniProt P08581) (assay: Inhibitory activity against the HGFR autophosphorylation using ELISA (MKN-45 cells)). Settings: 1 hr with test substance.
T1 construct: endogenous in cells; host or cells: MKN-45 human gastric cancer cells
Type: cell-based
Protocol: Human gastric cancer cells (MKN-45) were suspended in a 1% FBS-containing RPMI1640 medium (purchased from Sigma). The cell suspension (1×10^5 cells/ml) was put in a 96-well plate for cell culture (purchased from NUNC, Production No. 167008) at 0.1 ml/well, and then cultured in a 5% CO2 incubator (37° C.) overnight. After the culture, from each well was removed the supernatant, followed by adding 0.05 ml of a 1% FBS-containing RPMI1640 medium. Then, the well was supplied with 0.05 ml of the test substance dissolved in dimethyl sulfoxide (diluted with a 1% FBS-containing RPMI1640 medium), followed by culturing in a 5% CO2 incubator (37° C.) for 1 hr. From each well was removed the supernatant, and each well was washed with 150 μl of PBS, followed by adding 100 μl of a lysis buffer (50 mM Hepes (pH 7.4), 150 mM NaCl, 10% (v/v) glycerol, 1% Triton X-100, 1.5 mM MgCl2, 1 mM EDTA (pH 8.0), 100 mM NaF, 1 mM PMSF, 10 μg/ml Aprotinin, 50 μg/ml Leupeptin, 1 μg/ml Pepstatin A and 1 mM Na3VO4). The plate was shaken at 4° C. for 1 hr to prepare the cell extract.
To a 96-well plate for ELISA (purchased from COSTAR, Production No. 3369) was added 50 μl of 60 mM bicarbonate buffer (pH 9.6) containing 50 μg/ml of an anti-phosphotyrosine antibody (PY20, purchased from Transduction Laboratory, Production No. P-11120). The plate was incubated at 4° C. overnight.
Each well of the plate prepared in 2. was washed three times with 200 μl of PBS, and supplied with 150 μl of 3% BSA/PBS, followed by incubating at room temperature for 2 hrs. Each well was washed three times with 200 μl of PBS, and supplied with 50 μl of the above cell extract, followed by incubating at 4° C. overnight. After the incubation, each well was washed three times with 250 μl of a washing solution (0.1% BSA, 20 mM Tris-HCl (pH 7.6), 137 mM NaCl, and 0.05% Tween-20), and supplied with 70 μl of anti-HGFR antibody (h-Met(C-12), purchased from Santa Cruz, Production No. sc-10) 2,000-fold diluted with a reaction solution (1% BSA, 20 mM Tris-HCl (pH 7.6), 137 mM NaCl and 0.05% Tween-20), followed by incubating at room temperature for 1 hr. The well was washed three times with 250 μl of the washing solution, and supplied with 70 μl of peroxidase-labelled anti-rabbit IgG antibody (purchased from Cell Signaling, Production No. 7074) 2,000-fold diluted with the reaction solution, followed by incubating at room temperature for 1 hr. Each well was washed three times with 250 μl of the washing solution, and supplied with 70 μl of TMB Membrane Peroxidase Substrate (purchased from Funakoshi, Production No. 50-5077-03), followed by incubating at room temperature for 10 min. Each well was supplied with 70 μl of 1 M phosphoric acid, and using the Plate Reader MTP-500 (Corona Electric), the absorbance of the well was instantly determined at a measurement wavelength of 450 nm. While defining the absorbance of a well supplied with the cell extract having no test substance as 100% HGFR autophosphorylation activity, and the absorbance of a well supplied with 50 μl of the lysis buffer as 0% HGFR autophosphorylation activity, the HGFR autophosphorylation activity (%) was calculated for each well.

T1 sequence (P08581 25-1390): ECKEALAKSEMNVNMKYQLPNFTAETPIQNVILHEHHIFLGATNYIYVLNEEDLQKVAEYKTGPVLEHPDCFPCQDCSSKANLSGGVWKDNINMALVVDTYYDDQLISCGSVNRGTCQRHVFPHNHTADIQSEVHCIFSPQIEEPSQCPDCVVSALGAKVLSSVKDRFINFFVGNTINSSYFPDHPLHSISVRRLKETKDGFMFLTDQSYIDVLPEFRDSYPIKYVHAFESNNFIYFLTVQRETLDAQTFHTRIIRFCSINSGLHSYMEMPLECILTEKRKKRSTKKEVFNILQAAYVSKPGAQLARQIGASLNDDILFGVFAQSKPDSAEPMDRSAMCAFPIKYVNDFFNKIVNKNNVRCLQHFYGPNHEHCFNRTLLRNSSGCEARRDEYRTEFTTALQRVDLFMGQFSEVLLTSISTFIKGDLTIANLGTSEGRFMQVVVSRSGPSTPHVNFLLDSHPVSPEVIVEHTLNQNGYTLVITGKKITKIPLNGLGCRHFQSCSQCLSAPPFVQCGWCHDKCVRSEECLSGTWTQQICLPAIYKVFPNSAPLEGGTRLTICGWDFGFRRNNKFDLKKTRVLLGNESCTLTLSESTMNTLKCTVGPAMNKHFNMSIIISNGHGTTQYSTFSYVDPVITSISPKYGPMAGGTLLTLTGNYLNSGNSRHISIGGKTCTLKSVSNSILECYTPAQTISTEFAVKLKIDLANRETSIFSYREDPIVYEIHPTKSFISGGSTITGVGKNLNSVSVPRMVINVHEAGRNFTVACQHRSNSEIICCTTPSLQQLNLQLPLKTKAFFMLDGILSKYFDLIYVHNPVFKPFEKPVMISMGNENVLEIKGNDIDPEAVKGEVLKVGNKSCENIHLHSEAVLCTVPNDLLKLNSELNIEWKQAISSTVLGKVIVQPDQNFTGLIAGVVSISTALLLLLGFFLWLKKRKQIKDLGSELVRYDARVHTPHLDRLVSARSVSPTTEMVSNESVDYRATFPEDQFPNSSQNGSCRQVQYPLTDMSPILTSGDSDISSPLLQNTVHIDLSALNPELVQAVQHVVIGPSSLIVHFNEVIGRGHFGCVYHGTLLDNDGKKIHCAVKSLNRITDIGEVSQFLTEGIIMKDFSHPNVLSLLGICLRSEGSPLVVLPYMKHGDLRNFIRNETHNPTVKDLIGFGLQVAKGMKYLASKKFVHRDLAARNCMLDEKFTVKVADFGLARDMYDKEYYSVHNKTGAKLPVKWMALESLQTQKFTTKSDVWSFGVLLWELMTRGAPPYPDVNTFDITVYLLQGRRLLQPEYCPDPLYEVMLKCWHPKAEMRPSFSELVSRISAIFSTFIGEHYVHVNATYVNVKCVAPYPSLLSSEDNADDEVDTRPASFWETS

| Compound | IC50 |
| --- | --- |
| CN1CCN(C2CCN(C(=O)Nc3cc(Oc4ccc(NC(=O)C5(C(=O)Nc6ccc(F)cc6)CC5)cc4)ccn3)CC2)CC1 [Example 32, N-(4-Fluorophenyl)-N′-(4-{[2-({[4-(4-methylpiperazin-1-yl)piperidin-1-yl]carbonyl}amino)pyridin-4-yl]oxy}phenyl)cyclopropane-1,1-dicarboxamide] | 15 nM |
| O=C(Nc1cc(Oc2ccc(NC(=O)C3(C(=O)Nc4ccc(F)cc4)CC3)c(F)c2F)ccn1)N1CC(O)C1 [Example 106, N-[2,3-Difluoro-4-[(2-{[(3-hydroxyazetidin-1-yl)carbonyl]amino}pyridin-4-yl)oxy]phenyl}-N′-(4-fluorophenyl)cyclopropane-1,1-dicarboxamide] | 39 nM |
| CN1CCC(N2CCN(C(=O)Nc3cc(Oc4ccc(NC(=O)C5(C(=O)Nc6ccc(F)cc6)CC5)c(F)c4)ccn3)CC2)CC1 [Example 16, N-(2-Fluoro-4-{[2-({[4-(1-methylpiperidin-4-yl)piperazin-1-yl]carbonyl}amino)pyridin-4-yl]oxy}phenyl)-N′-(4-fluorophenyl)cyclopropane-1,1-dicarboxamide] | 18 nM |
| O=C(Nc1cc(Oc2ccc(NC(=O)C3(C(=O)Nc4ccc(F)cc4)CC3)cc2)ccn1)N1CCC(CN2CCCC2)CC1 [Example 29, N-(4-Fluorophenyl)-N′-(4-{[2-({[4-(pyrrolidin-1-ylmethyl)piperidin-1-yl]-carbonyl}amino)pyridin-4-yl]oxy}phenyl)cyclopropane-1,1-dicarboxamide] | 30 nM |
| CN1CCN(C(=O)Nc2cc(Oc3ccc(NC(=O)C4(C(=O)Nc5ccc(F)cc5)CC4)c(F)c3)ccn2)CC1 [Example 64, N-{2-Fluoro-4-[(2-{[(1-methylpiperazin-4-yl)carbonyl]amino}pyridin-4-yl)oxy]phenyl}-N′-(4-fluorophenyl)cyclopropane-1,1-dicarboxamide] | 20 nM |
| O=C(Nc1cc(Oc2ccc(NC(=O)C3(C(=O)Nc4ccc(F)cc4)CC3)cc2)ccn1)N1CCOCC1 [Example 68, N-(4-Fluorophenyl)-N′-[4-({2-[(morpholin-4-ylcarbonyl)amino]pyridin-4-yl}oxy)phenyl]cyclopropane-1,1-dicarboxamide] | 71 nM |
| O=C(Nc1cc(Oc2ccc(NC(=O)C3(C(=O)Nc4ccc(F)cc4)CC3)cc2F)ncn1)N1CCC(N2CCC2)CC1 [Example 34, N-{4-[(6-{[(4-Azetidin-1-ylpiperidin-1-yl)carbonyl]amino}pyrimidin-4-yl)oxy]-3-fluorophenyl}-N′-(4-fluorophenyl)cyclopropane-1,1-dicarboxamide] | 81 nM |
| O=C(Nc1cc(Oc2ccc(NC(=O)C3(C(=O)Nc4ccc(F)cc4)CC3)cc2F)ccn1)N1CCCC1 [Example 66, N-(4-Fluorophenyl)-N′-[3-fluoro-4-({2-[(pyrrolidin-1-ylcarbonyl)amino]pyridin-4-yl}oxy)phenyl]cyclopropane-1,1′-dicarboxamide] | 13 nM |
| CN(C)CCN1CCC(N(C)C(=O)Nc2cc(Oc3ccc(NC(=O)C4(C(=O)Nc5ccc(F)cc5)CC4)c(F)c3)ccn2)CC1 [Example 25, N-(4-{[2-({[{1-[2-(Dimethylamino)ethyl]piperidin-4-yl}(methyl)amino]carbonyl}amino)pyridin-4-yl]oxy}-2-fluorophenyl)-N′-(4-fluorophenyl)cyclopropane-1,1-dicarboxamide] | 4.6 nM |
| CN1CCN(C2CCN(C(=O)Nc3cc(Oc4cc(F)c(NC(=O)C5(C(=O)Nc6ccc(F)cc6)CC5)cc4F)ncn3)CC2)CC1 [Example 101, N-(2,5-Difluoro-4-{[4-({[4-(4-methylpiperazin-1-yl)piperidin-1-yl]carbonyl}amino)pyrimidin-6-yl]oxy}phenyl)-N′-(4-fluorophenyl)cyclopropane-1,1-dicarboxamide] | 15 nM |
| CN(C)C1CCN(C(=O)Nc2cc(Oc3cc(F)c(NC(=O)C4(C(=O)Nc5ccc(F)cc5)CC4)cc3F)ncn2)CC1 [Example 102, N-(4-{[4-({[4-(Dimethylamino)piperidin-1-yl]carbonyl}amino)pyrimidin-6-yl]oxy}-2,5-difluorophenyl)-N′-(4-fluorophenyl)cyclopropane-1,1-dicarboxamide] | 41 nM |
| CCN(CC)CCCNC(=O)Nc1cc(Oc2ccc(NC(=O)C3(C(=O)Nc4ccc(F)cc4)CC3)cc2C)ccn1 [Example 45, N-[4-({2-[({[3-(Diethylamino)propyl]amino}carbonyl)amino]pyridin-4-yl}oxy)-3-methylphenyl]-N′-(4-fluorophenyl)cyclopropane-1,1-dicarboxamide] | 440 nM |
| CN(C)CCN1CCC(N(C)C(=O)Nc2cc(Oc3ccc(NC(=O)C4(C(=O)Nc5ccc(F)cc5)CC4)cc3)ccn2)CC1 [Example 39, N-(4-{[2-({[{1-[2-(Dimethylamino)ethyl]piperidin-4-yl}(methyl)amino]carbonyl}amino)pyridin-4-yl]oxy}phenyl)-N′-(4-fluorophenyl)cyclopropane-1,1-dicarboxamide] | 16 nM |
| CN(C)C1CCN(C(=O)Nc2cc(Oc3ccc(NC(=O)C4(C(=O)Nc5ccc(F)cc5)CC4)cc3F)ccn2)CC1 [Example 23, N-(4-{[2-({[4-(Dimethylamino)piperidin-1-yl]carbonyl}amino)pyridin-4-yl]oxy}-3-fluorophenyl)-N′-(4-fluorophenyl)cyclopropane-1,1-dicarboxamide] | 17 nM |
| CN(C)[C@@H]1CCN(C(=O)Nc2cc(Oc3ccc(NC(=O)C4(C(=O)Nc5ccccc5)CC4)c(F)c3)ccn2)C1 [Example 59, N-(4-{[2-({[(3R)-3-(Dimethylamino)pyrrolidin-1-yl]carbonyl}amino)pyridin-4-yl]oxy}-2-fluorophenyl)-N′-phenylcyclopropane-1,1-dicarboxamide] | 16 nM |
| CN1CCN(C2CCN(C(=O)Nc3cc(Oc4ccc(NC(=O)C5(C(=O)Nc6ccc(F)cc6)CC5)cc4F)ccn3)CC2)CC1 [Example 20, N-(3-Fluoro-4-{[2-({[-4-(4-methylpiperazin-1-yl)piperidin-1-yl]-carbonyl}amino)pyridin-4-yl]oxy}phenyl)-N′-(4-fluorophenyl)cyclopropane-1,1-dicarboxamide] | 22 nM |
| CN1CC(N2CCN(C(=O)Nc3cc(Oc4ccc(NC(=O)C5(C(=O)Nc6ccc(F)cc6)CC5)cc4F)ccn3)CC2)C1 [Example 22, N-(3-Fluoro-4-{[2-({[4-(1-methylazetidin-3-yl)piperazin-1-yl]carbonyl}amino)pyridin-4-yl]oxy}phenyl)-N′-(4-fluorophenyl)cyclopropane-1,1-dicarboxamide] | 21 nM |
| O=C(Nc1cc(Oc2ccc(NC(=O)C3(C(=O)Nc4ccc(F)cc4)CC3)c(F)c2)ccn1)N1CC(CO)C1 [Example 75] | 13 nM |
| CN1CCC(N2CCN(C(=O)Nc3cc(Oc4ccc(NC(=O)C5(C(=O)Nc6ccc(F)cc6)CC5)cc4F)ccn3)CC2)CC1 [Example 19, N-(3-Fluoro-4-{[2-({[4-(1-methylpiperidin-4-yl)piperazin-1-yl]carbonyl}amino)pyridin-4-yl]oxy}phenyl)-N′-(4-fluorophenyl)cyclopropane-1,1-dicarboxamide] | 23 nM |
| CN(C)CC1CN(C(=O)Nc2cc(Oc3ccc(NC(=O)C4(C(=O)Nc5ccc(F)cc5)CC4)c(F)c3)ccn2)C1 [Example 77, N-[4-({2-[({3-[(Dimethylamino)methyl]azetidin-1-yl}carbonyl)amino]pyridin-4-yl}oxy)-2-fluorophenyl]-N′-(4-fluorophenyl)cyclopropane-1,1-dicarboxamide] | 13 nM |
